Where two headings read alike, the source gives them in different places.
Assays:
DDR1 = DDR1 (Homo sapiens (Human), UniProt Q08345); assay: DDR1 LanthaScreen Europium Kinase Binding assay
Experimental: (§1) DDR1 and DDR2 binding assays were performed using Life Technologies LanthaScreen™ Europium Kinase Binding assay. The compounds were incubated with 5 nM DDR1 (Carna Biosciences) or 5 nM DDR2 (Life Technologies) for 1 hour at rt in white 384-well OptiPlate (PerkinElmer), containing 20 nM or 10 nM Kinase Tracer 178 respectively and 2 nM Europium labelled anti-GST antibody (Life Technologies) in assay buffer (50 mM HEPES pH 7.5, 10 mM MgCI2, 1 mM EGTA and 0.01% BRIJ35). The ratio of fluorescence emission 665 nm/615 nm after excitation at 340 nm was obtained using the Tecan Spark 20M plate reader. IC50 values were determined in GraphPad Prism 7.0 software, using 4 parameter model: log(inhibitor) vs. response. IC50 values were converted in Ki using the Cheng-Prusoff equation (Ki=IC50/(1+[Tracer]/Kd).
(§2) Compounds C1 and C2 were tested in the same binding assay described above.

DDR2 = DDR2 (Homo sapiens (Human), UniProt Q16832); assay: DDR2 LanthaScreen Europium Kinase Binding assay
DDR2, sequence (Q16832 22-855): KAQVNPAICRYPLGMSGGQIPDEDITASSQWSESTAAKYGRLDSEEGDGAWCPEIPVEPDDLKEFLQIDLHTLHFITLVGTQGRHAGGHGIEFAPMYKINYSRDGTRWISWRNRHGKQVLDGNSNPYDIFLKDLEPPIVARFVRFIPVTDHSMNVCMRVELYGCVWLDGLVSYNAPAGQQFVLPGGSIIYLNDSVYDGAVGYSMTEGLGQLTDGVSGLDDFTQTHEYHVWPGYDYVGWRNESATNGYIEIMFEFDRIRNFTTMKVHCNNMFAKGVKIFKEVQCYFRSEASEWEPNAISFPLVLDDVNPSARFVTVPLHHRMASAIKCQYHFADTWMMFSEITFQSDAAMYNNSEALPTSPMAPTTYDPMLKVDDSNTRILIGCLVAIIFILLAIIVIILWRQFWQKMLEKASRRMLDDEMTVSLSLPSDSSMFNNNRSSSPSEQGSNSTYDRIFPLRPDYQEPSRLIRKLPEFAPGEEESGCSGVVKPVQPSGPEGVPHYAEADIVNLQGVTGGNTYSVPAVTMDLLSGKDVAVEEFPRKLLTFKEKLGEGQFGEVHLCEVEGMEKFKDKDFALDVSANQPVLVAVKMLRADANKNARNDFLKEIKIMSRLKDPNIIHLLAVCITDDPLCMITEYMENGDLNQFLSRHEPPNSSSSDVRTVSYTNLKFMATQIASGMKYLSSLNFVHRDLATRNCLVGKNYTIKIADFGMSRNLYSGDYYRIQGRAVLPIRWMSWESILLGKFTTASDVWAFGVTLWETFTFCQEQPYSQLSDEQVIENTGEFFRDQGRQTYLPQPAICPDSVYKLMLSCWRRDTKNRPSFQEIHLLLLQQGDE
Experimental: as §1, §2

[1] = binding, 5 nM DDR1, 20 nM Kinase Tracer 178, 1 hour at rt, Ki from IC50 by Cheng-Prusoff, read-out: Ki DDR1
[2] = binding, 5 nM DDR2, 10 nM Kinase Tracer 178, 1 hour at rt, Ki from IC50 by Cheng-Prusoff, read-out: Ki DDR2

DDR1, sequence (Q08345 19-913): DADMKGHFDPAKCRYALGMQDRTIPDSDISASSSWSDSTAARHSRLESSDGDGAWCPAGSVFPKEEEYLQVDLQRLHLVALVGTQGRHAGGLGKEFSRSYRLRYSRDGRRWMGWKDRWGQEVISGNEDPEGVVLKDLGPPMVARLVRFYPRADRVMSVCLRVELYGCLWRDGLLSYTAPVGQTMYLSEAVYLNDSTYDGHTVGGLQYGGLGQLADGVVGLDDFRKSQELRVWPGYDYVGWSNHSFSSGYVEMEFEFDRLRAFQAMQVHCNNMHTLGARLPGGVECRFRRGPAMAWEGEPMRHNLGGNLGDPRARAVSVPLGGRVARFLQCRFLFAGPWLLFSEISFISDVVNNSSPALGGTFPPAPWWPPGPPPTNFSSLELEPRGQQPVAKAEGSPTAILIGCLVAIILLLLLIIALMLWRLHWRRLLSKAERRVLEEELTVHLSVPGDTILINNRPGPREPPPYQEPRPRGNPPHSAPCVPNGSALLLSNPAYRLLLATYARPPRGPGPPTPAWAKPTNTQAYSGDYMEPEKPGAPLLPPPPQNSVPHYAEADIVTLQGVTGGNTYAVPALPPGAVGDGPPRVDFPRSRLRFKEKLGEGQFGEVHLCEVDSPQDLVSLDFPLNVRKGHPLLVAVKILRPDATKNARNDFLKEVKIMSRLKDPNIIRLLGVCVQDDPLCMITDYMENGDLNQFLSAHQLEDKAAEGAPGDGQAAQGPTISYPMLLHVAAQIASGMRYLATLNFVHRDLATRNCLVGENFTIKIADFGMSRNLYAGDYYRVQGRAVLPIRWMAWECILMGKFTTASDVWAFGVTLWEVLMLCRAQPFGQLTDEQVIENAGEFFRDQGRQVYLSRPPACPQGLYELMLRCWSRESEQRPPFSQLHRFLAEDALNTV

| SMILES | Ki (DDR1; [1]) [nM] | Ki (DDR2; [2]) [nM] | Ki (DDR1; same binding assay, numeric values, read-out: DDR1 Ki) [nM] | Ki (DDR2; same binding assay, numeric values, read-out: DDR2 Ki) [nM] |
| --- | --- | --- | --- | --- |
| Cc1ccc(C(=O)Nc2cccc(C(F)(F)F)c2)cc1C1CCN(c2cncc(NCCN3CCOCC3)c2)C1 (centres unmarked) [Example 22, 4-methyl-3-(1-(5-((2-morpholinoethyl)amino)pyridin-3-yl)pyrrolidin-3-yl)-N-(3-(trifluoromethyl)phenyl)benzamide] | < 10 | 10 to 25 |  |  |
| Cc1ccc(C(=O)Nc2cccc(C(F)(F)F)c2)cc1[C@@H]1CCN(c2cncc(N3CC4(COC4)C3)c2)C1 [Example 37, (S)-3-(1-(5-(2-oxa-6-azaspiro[3.3]heptan-6-yl)pyridin-3-yl)pyrrolidin-3-yl)-4-methyl-N-(3-(trifluoromethyl)phenyl)benzamide] | < 10 | 10 to 25 |  |  |
| Cc1ccc(C(=O)Nc2cccc(C(F)(F)F)c2)cc1[C@@H]1CCN(c2cncc(N3CCC4(COC4)C3)c2)C1 [Example 39, (S)-3-(1-(5-(2-oxa-6-azaspiro[3.4]octan-6-yl)pyridin-3-yl)pyrrolidin-3-yl)-4-methyl-N-(3-(trifluoromethyl)phenyl)benzamide] | 10 to 25 | > 60 |  |  |
| Cc1ccc(C(=O)Nc2cccc(C(F)(F)F)c2)cc1C1CCN(c2cncc(N3CCOCC3)c2)C1 (centres unmarked) [Example 8, 4-methyl-3-(1-(5-morpholinopyridin-3-yl)pyrrolidin-3-yl)-N-(3-(trifluoromethyl)phenyl)benzamide] | < 10 | 25 to 60 |  |  |
| CC(=O)Nc1cc(N2CC[C@@H](c3cc(C(=O)Nc4cccc(C(F)(F)F)c4)ccc3C)C2)ccn1 [Example 41, (S)-3-(1-(2-acetamidopyridin-4-yl)pyrrolidin-3-yl)-4-methyl-N-(3-(trifluoromethyl)phenyl)benzamide] | < 10 | < 10 |  |  |
| Cc1ccc(C(=O)Nc2cccc(C(F)(F)F)c2)cc1[C@@H]1CCN(c2cncc(N3CCC(F)(F)CC3)c2)C1 [Example 31, (S)-3-(1-(5-(4,4-difluoropiperidin-1-yl)pyridin-3-yl)pyrrolidin-3-yl)-4-methyl-N-(3-(trifluoromethyl)phenyl)benzamide] | < 10 | > 60 |  |  |
| Cc1ccc(C(=O)Nc2cccc(C(F)(F)F)c2)cc1[C@@H]1CCN(c2cncc(-c3cnn(C)c3)c2)C1 [Example 52, (S)-4-methyl-3-(1-(5-(1-methyl-1H-pyrazol-4-yl)pyridin-3-yl)pyrrolidin-3-yl)-N-(3-(trifluoromethyl)phenyl)benzamide] | < 10 | < 10 |  |  |
| Cc1ccc(C(=O)Nc2cccc(C(F)(F)F)c2)cc1[C@@H]1CCN(c2cnc3ccnn3c2)C1 [Example 43, (S)-4-methyl-3-(1-(pyrazolo[1,5-a]pyrimidin-6-yl)pyrrolidin-3-yl)-N-(3-(trifluoromethyl)phenyl)benzamide] | 25 to 60 | 25 to 60 |  |  |
| Cc1ccc(C(=O)Nc2cccc(C(F)(F)F)c2)cc1C1CCN(c2ccnc(C(N)=O)c2)C1 (single isomer, unassigned) [Example 54, 4-(3-(2-methyl-5-((3-(trifluoromethyl)phenyl)carbamoyl)phenyl)pyrrolidin-1-yl)picolinamide] | < 10 | < 10 |  |  |
| Cc1ccc(C(=O)Nc2cccc(C(F)(F)F)c2)cc1[C@@H]1CCN(c2cncc(C(=O)N3CCC(F)(F)CC3)c2)C1 [Example 32, (S)-3-(1-(5-(4,4-difluoropiperidine-1-carbonyl)pyridin-3-yl)pyrrolidin-3-yl)-4-methyl-N-(3-(trifluoromethyl)phenyl)benzamide] | 25 to 60 | > 60 |  |  |
| Cc1ccc(C(=O)Nc2cccc(C(F)(F)F)c2)cc1C1CCN(C(=O)c2cccnc2)C1 (centres unmarked) [Example 14, 4-methyl-3-(1-nicotinoylpyrrolidin-3-yl)-N-(3-(trifluoromethyl)phenyl)benzamide] | < 10 | < 10 |  |  |
| Cc1ccc(C(=O)Nc2cccc(C(F)(F)F)c2)cc1C1CCN(c2ccnc(C(N)=O)c2)C1 (racemic) [Example 53, 4-(3-(2-methyl-5-((3-(trifluoromethyl)phenyl)carbamoyl)phenyl)pyrrolidin-1-yl)picolinamide] | < 10 | < 10 |  |  |
| Cc1ccc(C(=O)Nc2cccc(C(F)(F)F)c2)cc1C1CCN(Cc2cccnc2)C1 (centres unmarked) [Compound C2, 4-methyl-3-(1-(pyridin-3-ylmethyl)pyrrolidin-3-yl)-N-(3-(trifluoromethyl)phenyl)benzamide, reference compound] |  |  | 571 | 764 |
| Cc1ccc(C(=O)Nc2cccc(C(F)(F)F)c2)cc1C1CCN(c2cncc(OCCN3CCOCC3)c2)C1 (centres unmarked) [Example 5, 4-methyl-3-(1-(5-(2-morpholinoethoxy)pyridin-3-yl)pyrrolidin-3-yl)-N-(3-(trifluoromethyl)phenyl)benzamide] | < 10 | 25 to 60 |  |  |
| Cc1ccc(C(=O)Nc2ccc(CN(C)C)c(C(F)(F)F)c2)cc1[C@@H]1CCN(c2cncc(C(N)=O)c2)C1 [Example 58, (S)-5-(3-(5-((4-((dimethylamino)methyl)-3-(trifluoromethyl)phenyl)carbamoyl)-2-methylphenyl)pyrrolidin-1-yl)nicotinamide] | < 10 | 10 to 25 |  |  |
| Cc1ccc(C(=O)Nc2cccc(C(F)(F)F)c2)cc1C1CCN(c2ccnc(C#N)c2)C1 (centres unmarked) [Example 24, 3-(1-(2-cyanopyridin-4-yl)pyrrolidin-3-yl)-4-methyl-N-(3-(trifluoromethyl)phenyl)benzamide] | 25 to 60 | > 60 |  |  |

Continued, values first:

| Ki (DDR1; [1]) [nM] | Ki (DDR2; [2]) [nM] | Ki (DDR1; same binding assay, numeric values, read-out: DDR1 Ki) [nM] | Ki (DDR2; same binding assay, numeric values, read-out: DDR2 Ki) [nM] | SMILES |
| --- | --- | --- | --- | --- |
| < 10 | 10 to 25 |  |  | CC(=O)Nc1ncc(N2CC[C@@H](c3cc(C(=O)Nc4cccc(C(F)(F)F)c4)ccc3C)C2)cn1 [Example 51, (S)-3-(1-(2-acetamidopyrimidin-5-yl)pyrrolidin-3-yl)-4-methyl-N-(3-(trifluoromethyl)phenyl)benzamide] |
| < 10 | < 10 |  |  | Cc1ccc(C(=O)Nc2cccc(C(F)(F)F)c2)cc1[C@@H]1CCN(c2cccnc2)C1 [Example 16, (S)-4-methyl-3-(1-(pyridin-3-yl)pyrrolidin-3-yl)-N-(3-(trifluoromethyl)phenyl)benzamide] |
| < 10 | 10 to 25 |  |  | CNc1ncc(N2CC[C@@H](c3cc(C(=O)Nc4cccc(C(F)(F)F)c4)ccc3C)C2)cn1 [Example 49, (S)-4-methyl-3-(1-(2-(methylamino)pyrimidin-5-yl)pyrrolidin-3-yl)-N-(3-(trifluoromethyl)phenyl)benzamide] |
| < 10 | < 10 |  |  | CC(=O)Nc1cncc(N2CC[C@@H](c3cc(C(=O)Nc4cccc(C(F)(F)F)c4)ccc3C)C2)c1 [Example 40, (S)-3-(1-(5-acetamidopyridin-3-yl)pyrrolidin-3-yl)-4-methyl-N-(3-(trifluoromethyl)phenyl)benzamide] |
| < 10 | < 10 |  |  | CNC(=O)c1cc(N2CCC(c3cc(C(=O)Nc4cccc(C(F)(F)F)c4)ccc3C)C2)ccn1 (centres unmarked) [Example 1, N-methyl-4-(3-(2-methyl-5-((3-(trifluoromethyl)phenyl)carbamoyl)phenyl)pyrrolidin-1-yl)picolinamide] |
| < 10 | 10 to 25 |  |  | COCCNC(=O)c1cncc(N2CCC(c3cc(C(=O)Nc4cccc(C(F)(F)F)c4)ccc3C)C2)c1 (centres unmarked) [Example 9, N-(2-methoxyethyl)-5-(3-(2-methyl-5-((3-(trifluoromethyl)phenyl)carbamoyl)phenyl)pyrrolidin-1-yl)nicotinamide] |
| < 10 | < 10 |  |  | Cc1ccc(C(=O)Nc2cccc(C(F)(F)F)c2)cc1C1CCN(c2cccnc2)C1 (centres unmarked) [Example 2, 4-methyl-3-(1-(pyridin-3-yl)pyrrolidin-3-yl)-N-(3-(trifluoromethyl)phenyl)benzamide] |
| < 10 | < 10 |  |  | COc1cncc(N2CCC(c3cc(C(=O)Nc4cccc(C(F)(F)F)c4)ccc3C)C2)c1 (centres unmarked) [Example 3, 3-(1-(5-methoxypyridin-3-yl)pyrrolidin-3-yl)-4-methyl-N-(3-(trifluoromethyl)phenyl)benzamide] |
| < 10 | 10 to 25 |  |  | CNC(=O)c1cncc(N2CC[C@H](c3cc(C(=O)Nc4cccc(C(F)(F)F)c4)ccc3C)C2)c1 [Example 28, (R)-N-methyl-5-(3-(2-methyl-5-((3-(trifluoromethyl)phenyl)carbamoyl)phenyl)pyrrolidin-1-yl)nicotinamide] |
| < 10 | < 10 |  |  | Cc1ccc(C(=O)Nc2cccc(C(F)(F)F)c2)cc1[C@@H]1CCN(c2cncc(C(=O)NCCN(C)C)c2)C1 [Example 34, (S)-N-(2-(dimethylamino)ethyl)-5-(3-(2-methyl-5-((3-(trifluoromethyl)phenyl)carbamoyl)phenyl)pyrrolidin-1-yl)nicotinamide] |
| < 10 | 10 to 25 |  |  | Cc1ccc(C(=O)Nc2cccc(C(F)(F)F)c2)cc1[C@@H]1CCN(c2cncc(C(=O)N3CCOCC3)c2)C1 [Example 33, (S)-4-methyl-3-(1-(5-(morpholine-4-carbonyl)pyridin-3-yl)pyrrolidin-3-yl)-N-(3-(trifluoromethyl)phenyl)benzamide] |
| < 10 | 10 to 25 |  |  | Cc1ccc(C(=O)Nc2cccc(C(F)(F)F)c2)cc1C1CCN(c2cncc(C(N)=O)c2)C1 (centres unmarked) [Example 17, 5-(3-(2-methyl-5-((3-(trifluoromethyl)phenyl)carbamoyl)phenyl)pyrrolidin-1-yl)nicotinamide] |

Reference: patent publication US20240425482A1, “PYRROLIDINE DERIVATIVES AS DDRS INHIBITORS” (CHIESI FARMACEUTICI S.P.A., priority 2021, published 2024)
